We go through eight compounds from patent publication US20240317708A1, “INHIBITORS OF TRANSGLUTAMINASES” (ZEDIRA GMBH, priority 2021, published 2024).

The target of data set [1] is T1, recombinant human transglutaminase 2 (Homo sapiens, UniProt P21980).
T1 construct: purchased Zedira T022
T1 sequence (P21980 1-687): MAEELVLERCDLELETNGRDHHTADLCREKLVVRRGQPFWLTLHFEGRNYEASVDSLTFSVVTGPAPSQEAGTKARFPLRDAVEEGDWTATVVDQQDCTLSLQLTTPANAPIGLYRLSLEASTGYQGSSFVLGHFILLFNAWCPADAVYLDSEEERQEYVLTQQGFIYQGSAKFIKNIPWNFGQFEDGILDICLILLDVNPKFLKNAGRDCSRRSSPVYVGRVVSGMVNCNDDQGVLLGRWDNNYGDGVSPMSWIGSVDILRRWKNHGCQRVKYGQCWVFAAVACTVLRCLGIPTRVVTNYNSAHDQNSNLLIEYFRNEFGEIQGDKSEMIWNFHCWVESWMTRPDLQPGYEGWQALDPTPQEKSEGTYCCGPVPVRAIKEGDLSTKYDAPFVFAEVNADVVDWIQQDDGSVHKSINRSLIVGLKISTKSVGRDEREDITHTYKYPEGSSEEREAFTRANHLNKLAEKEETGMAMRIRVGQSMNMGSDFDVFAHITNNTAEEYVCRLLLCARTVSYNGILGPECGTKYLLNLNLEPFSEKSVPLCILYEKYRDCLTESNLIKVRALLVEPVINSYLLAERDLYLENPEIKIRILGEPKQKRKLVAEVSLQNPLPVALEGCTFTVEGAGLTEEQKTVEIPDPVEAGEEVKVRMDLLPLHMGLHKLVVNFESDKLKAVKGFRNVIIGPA
The experiment in a line: Transglutaminase assay (dansylcadaverine incorporation into dimethylcasein, DCC-assay). As to conditions: recombinant human TG2 10 nM, dansylcadaverine/dimethylcasein, 37° C. The format is biochemical. How it is done:
For the determination of potency of inhibitors against tissue transglutaminase, the incorporation of dansylcadaverine into dimethylcasein (Zedira product T036, Lorand et al., Anal Biochem, 1971, 44:221-31) was measured using recombinant human transglutaminase 2 (Zedira Product T022).
The tissue transglutaminase is diluted in buffer (50 mM Tris-HCl, 7.5 mM CaCl2, 150 mM NaCl, pH=7.4). The final concentration of TG2 in the assay is 10 nM.
A 10 mM inhibitor stock solution is prepared in DMSO, and from this a serial 1:2-fold dilution series is prepared also in DMSO. Each of the initial dilutions is subsequently diluted 1:50-fold with buffer (50 mM Tris-HCl, 7.5 mM CaCl2, 150 mM NaCl, pH=7.4) to yield the final working dilutions containing 2% (v/v) DMSO.
15 μl of inhibitor working dilution are added per well of a 96 well microtiter plate. As control, 15 μl of a 2% (v/v) DMSO solution prepared using the buffer mentioned above are added per well.
Immediately before starting the assay, 600 μl transglutaminase working solution are added to 11.4 ml assay buffer (50 mM Tris-HCl, 10 mM CaCl2, 10 mM glutathione, 2.5% glycerol, 16.7 μM dansylcadaverine, 4 μM N,N-dimethylcasein, 200 mM NaCl, pH=8.0). 285 μl of this reaction mix are added per well containing the inhibitor.
Increase in fluorescence is measured using λex=330 nm and λem=500 nm at 37° C. for 30 min. A slope of the increase in fluorescence between 20 and 30 min is calculated for determination of the IC50 value (inhibitor concentration at which 50% of the initial activity is blocked).
Analysis of enzymatic activity is performed by calculation of the slope of an increase in fluorescence intensity. IC50 values are calculated by plotting the enzymatic activity (as percentage from control containing 2% DMSO instead of inhibitor) against the inhibitor concentration. IC50 is defined as the inhibitor concentration blocking 50% of initial enzyme activity.

The nature of data set [2]: Log D shake flask method (octanol / PBS pH 7.4, HPLC). The format is physicochemical. The conditions noted are these: octanol/phosphate-buffered saline (PBS); octanol / PBS pH 7.4, shake flask. How it is done:
In order to classify the inventive compounds according to their lipophilicity, Log D values (distribution coefficient) were determined by means of the well-established shake flask method, measuring the partition of a compound between an octanol and phosphate-buffered saline (PBS, pH 7.4) by HPLC.

Data set [3] is described as follows: Caco-2 permeability assay (CacoReady kit). In kind it is in vitro ADME. The conditions noted are these: human. How it is done: Permeability coefficients (Papp values) were obtained from Caco-2 barrier studies predicting oral/intestinal bioavailability of the tested compounds. The assays were performed by using CacoReady™ ready-to-use kits from ReadyCell according to the manufacturers protocol.
In general terms: Caco-2 monolayers are a common model of the intestinal barrier.

Molecules are shown by their SMILES.

For `COC(=O)/C=C/CC[C@H](NC(=O)c1c[nH]cn1)C(=O)Nc1cccn(CC(=O)NC2C3CC4CC(C3)CC2C4)c1=O` (stereo partly drawn) [III-28, (S,E)-methyl 6-(1H-imidazole-4-carboxamido)-7-(1-(2-(2-adamantylamino)-2-oxoethyl)-2-oxo-1,2-dihydropyridin-3-ylamino)-7-oxohept-2-enoate], the half-inhibitory concentration (IC50) (usually the midpoint of a concentration-inhibition curve) in data set [1] was in the range of 250 to 1500 nM. Also, in data set [2], the pH-dependent lipophilicity (logD) – broadly, lipophilicity at a set pH, counting ionised and neutral species – was in the range of 3 to 5. Also, in data set [3], the apparent permeability coefficient (Papp) (usually the rate of passage across a membrane or cell layer, normalised by area and donor concentration) is less than 1 ×10⁻⁶ cm/s.
For the compound `COC(=O)/C=C/CC[C@H](NC(=O)[C@@H]1CCCCN1)C(=O)Nc1cccn(CC(=O)NC2C3CC4CC(C3)CC2C4)c1=O` (stereo partly drawn) [III-29, (S,E)-methyl 7-(1-(2-(2-adamantylamino)-2-oxoethyl)-2-oxo-1,2-dihydropyridin-3-ylamino)-7-oxo-6-((S)-piperidine-2-carboxamido)hept-2-enoate], the half-inhibitory concentration (IC50) in data set [1] was 25 to 250 nM. The compound also gave a log distribution coefficient (logD) in data set [2] of 3 to 5. In data set [3], this compound yielded a Papp of less than 1 ×10⁻⁶ cm/s.
`COC(=O)/C=C/CC[C@H](NC(=O)[C@@H]1CCCNC1)C(=O)Nc1cccn(CC(=O)NC2C3CC4CC(C3)CC2C4)c1=O` (stereo partly drawn) [III-30, (S,E)-methyl 7-(1-(2-(2-adamantylamino)-2-oxoethyl)-2-oxo-1,2-dihydropyridin-3-ylamino)-7-oxo-6-((R)-piperidine-3-carboxamido)hept-2-enoate]: in data set [1], the IC50 lay within 25 to 250 nM. The compound also had a logD in data set [2] of 3 to 5. In data set [3], this compound yielded a Papp of less than 1 ×10⁻⁶ cm/s.
For `COC(=O)/C=C/CC[C@H](NC(=O)[C@H]1COCCN1)C(=O)Nc1cccn(CC(=O)NC2C3CC4CC(C3)CC2C4)c1=O` (stereo partly drawn) [III-31, (S,E)-methyl 7-(1-(2-(2-adamantylamino)-2-oxoethyl)-2-oxo-1,2-dihydropyridin-3-ylamino)-6-((R)-morpholine-3-carboxamido)-7-oxohept-2-enoate], in data set [1], the IC50 was 25 to 250 nM. For the same compound, in data set [2], the pH-dependent lipophilicity (logD) was in the range of 1 to 3. In data set [3], the Papp is less than 1 ×10⁻⁶ cm/s.
On the same counts, the results for `COC(=O)/C=C/CC[C@H](NC(=O)C1CN2CCC1CC2)C(=O)Nc1cccn(CC(=O)NC2C3CC4CC(C3)CC2C4)c1=O` (stereo partly drawn) [III-32, (S,E)-methyl 7-(1-(2-(2-adamantylamino)-2-oxoethyl)-2-oxo-1,2-dihydropyridin-3-ylamino)-7-oxo-6-(quinuclidine-3-carboxamido)hept-2-enoate] are 25 to 250 nM, 3 to 5 and less than 1 ×10⁻⁶ cm/s.
`COC(=O)/C=C/CC[C@H](NC(=O)c1cc(C(=O)OC)cc([N+](=O)[O-])c1)C(=O)Nc1cccn(CC(=O)NC2C3CC4CC(C3)CC2C4)c1=O` (stereo partly drawn) [III-33, (S,E)-methyl 3-(1-(1-(2-(2-adamantylamino)-2-oxoethyl)-2-oxo-1,2-dihydropyridin-3-ylamino)-7-methoxy-1,7-dioxohept-5-en-2-ylcarbamoyl)-5-nitrobenzoate]: the 50% inhibitory concentration (IC50) in data set [1] was less than 25 nM. Further, the logD in data set [2] is 3 to 5. Moreover, in data set [3], the apparent permeability (Papp) was less than 1 ×10⁻⁶ cm/s.
Take `COC(=O)/C=C/CC[C@H](NC(=O)c1cncc([N+](=O)[O-])c1)C(=O)Nc1cccn(CC(=O)NC2C3CC4CC(C3)CC2C4)c1=O` (stereo partly drawn) [III-34, (S,E)-methyl 7-(1-(2-(2-adamantylamino)-2-oxoethyl)-2-oxo-1,2-dihydropyridin-3-ylamino)-6-(5-nitronicotinamido)-7-oxohept-2-enoate]: the IC50 in data set [1] is less than 25 nM. Further, in data set [2], the log distribution coefficient (logD) lay in the range of 3 to 5. For the same compound, the Papp in data set [3] was less than 1 ×10⁻⁶ cm/s.
On the same counts, the results for `COC(=O)/C=C/CC[C@H](NC(=O)c1cncc(C(=O)O)c1)C(=O)Nc1cccn(CC(=O)NC2C3CC4CC(C3)CC2C4)c1=O` (stereo partly drawn) [III-35, (S,E)-5-(1-(1-(2-(2-adamantylamino)-2-oxoethyl)-2-oxo-1,2-dihydropyridin-3-ylamino)-7-methoxy-1,7-dioxohept-5-en-2-ylcarbamoyl)nicotinic acid] are less than 25 nM, 3 to 5 and less than 1 ×10⁻⁶ cm/s.
